The test system of one data set is MV-4-11 xenograft tumor. The data set is described as follows: Western blot of CDK9-dependent protein expression in MV-4-11 xenograft tumor tissue. Format: in vivo, female BALB/c nude mice. To be noted: single dose 15 mg/kg i.v. As to the method: Figure 9 Effect of GFH009 treatment on CDK9-dependent protein expression in vivo. Female BALB/c nude mice were subcutaneously inoculated with 5 × 10^6 MV-4-11 cells. […] The mice were euthanized, and tumor tissues were collected at different times after administration as indicated for western blot analysis. Three individual mice were selected from GFH009 treatment group.
In vivo protein expression was assessed via SDS-PAGE and western blotting of samples from female BALB/c nude mice following treatment with GHF009. […] When tumors reached approximately 600 mm^3 (Day 25), animals were randomly divided into two groups. Group 1 received a single dose of vehicle control. […] Both were administered via tail vein injection.
All mice were euthanized, and tumor tissues collected at required times following administration. Group 1 control animals were euthanized at 2 hours post-administration. Group 2 animals were euthanized at 1, 2, 4, 8, 24, and 48 hours after administration. Tumor tissue was harvested, weighed, and flash frozen in liquid nitrogen. Total proteins were extracted and analyzed by western blot to determine expression of phospho-Rpb1 CTD Ser2, RPB1, MYC, MCL-1, Cleaved Caspase-3, and vinculin. Image Studio V5.0 was used to analyze all western blot membrane images.
On the technique in general: In western blotting, separated proteins are transferred to a membrane and probed.

A further data set concerns MV-4-11. The data set is described as follows: Apoptosis by Annexin V/PI double staining, flow cytometry. It counts as cell-based, human. To be noted: 6-hour treatment, DMSO control 6.4 ± 0.1%. As to the method: Figure 5 Apoptotic activity of GFH009 in human malignancy cell lines. Four cell lines, MV-4-11 (A), HL-60 (B), U937 (C), and NCI-H929 (D) were treated with different concentrations of GFH009 or enitociclib for 6 hours and harvested for cell apoptosis analysis using Annexin V/PI double staining. Data are presented as mean (SD) from multiple independent experiments. ^* P < 0.05, ^*** P < 0.001, ^**** P < 0.0001, one-way ANOVA with Dunnett’s test analysis compared to DMSO control group.
Initiation of apoptosis by GFH009 was assayed in multiple human cell lines, including MV-4-11, HL-60, U937, and NCI-H929. Cells were incubated at 37°C and 5% CO2 for 6 hours at final concentrations of 1 μM, 0.3 μM, 0.1 μM, 0.03 μM, and 0.01 μM for both GFH009 and Enitociclib. After drug treatment, cells were collected, and apoptosis determined using Annexin V-FITC and propidium iodide (PI) staining (Becton, Dickinson and Co, Franklin Lakes, NJ, USA). Samples were examined using an Attune NxT Flow Cytometer (Thermo Fisher Scientific, Waltham, MA, USA) within 1 hour of staining and analyzed using FlowJo vX.0.7 software. The apoptotic rate between groups was statistically compared by means of one-way ANOVA (Dunnett’s multiple comparisons test). Differences from the dimethyl sulfoxide (DMSO)-only treated control group was considered statistically significant at a P value of < 0.05. All plotting and statistical analysis were conducted using the Prism GraphPad 6 for Windows v6.01.

For a further data set, the system named is MV-4-11 cells. In words: Western blot of CDK9-regulated signaling in cultured cells. It counts as cell-based, human. To be noted: 4-hour incubation. Here is the method: Figure 4 Effect of GFH009 on CDK9-dependent gene expression in cells. Western blot of MV-4-11 cells after exposure to different concentrations of GFH009 or Enitociclib for 4 hours was analyzed. A representative blot was shown from 3 independent experiments.
The effect of GFH009 on CDK9-regulated signaling pathways in human hematological malignancy cell lines was assessed via western blot. Cultured MV-4-11 cells, derived from human blastic AML cells (ATCC), were incubated at 37°C and 5% CO2 for 4 hours at final concentrations of 1 μM, 0.3 μM, 0.1 μM, 0.03 μM, and 0.01 μM for both GFH009 and enitociclib. Protein isolates were collected from pelleted cells as previously described, semi-quantified via western blot and analyzed using Image Studio 5.0 (LI-COR Biosciences, Lincoln, NE, USA).

The subject of data set [1] is human hematological malignancy-derived cell lines. In words: Cell viability / antiproliferative activity by CellTiter Glo. It counts as cell-based. To be noted: in 7 of the 10 lines tested, 24 hours of exposure. Here is the method:
Figure 3 Effect of GFH009 on cell proliferation in assorted human hematologic malignancy cell lines. Cell viability IC50s for GFH009 on human hematological malignancy-derived cell lines after 24 hours of exposure to the agent were determined using CellTiter Glo.
The antiproliferative activity of GFH009 was assessed in cultured cell lines derived from human hematological malignancies over a period of 24-hour in vitro assay readouts. Enitociclib was used as a comparator for experimental validation (provided by MedChem Express, Monmouth, NJ, USA). Cell growth was analyzed by CellTiter Glo in 96-well plates and detected via chemiluminescent signal. The absolute inhibitory concentration of 50% (AbsIC50 values of the drug were calculated by fitting the drug inhibition rate curve with the “log (inhibitor) versus response – variable slope (4 parameters)” model by using the Prism GraphPad 6 for Windows v6.01 software.

Data set [2] in a line: Body weight change in MV-4-11 xenograft mice. To be noted: all GFH009 treatment groups; through Day 28. It counts as in vivo, female BALB/c nude mice. As to the method: Figure 7 Effect of GFH009 on body weight change in MV-4-11 xenografts. Body weight change of MV-4-11 xenograft (Figure 6) are expressed as mean ± SEM. ^* […], ^** P < 0.01, ^**** P < 0.0001, two-way ANOVA with Dunnett’s multiple comparisons test analysis compared to the vehicle-treated (control) group.
Animals dosed BIW were given treatments on 2 consecutive days. Weights were recorded for each mouse every day and tumor volumes assessed 3 times a week. Total treatment administration occurred across 3 consecutive weeks.
Relative change in body weight (RCBW) was determined as RCBW (%) = (Bwi – BW0)/BW0 × 100, where Bwi is body weight of a given mouse on a given day, and BW0 is initial body weight on the day they were assigned to a treatment group.

In a further data set the target is CDK9/cyclin T1(h) (Homo sapiens, UniProt P50750). To be noted: read-out: IC50 of inhibition of the CDK9/Cyclin T1 complex; radiometric kinase activity. As to the method: Figure 2 Effect of GFH009 on CDK9 enzymatic activity. IC50 of GFH009 inhibition activity against the CDK9/cyclin T1 complex was determined with Eurofin KinaseProfiler radiometric protein kinase activity.
GFH009 inhibition activity against the CDK9/cyclin T1 complex as well as off-target CDK family reactivity were assayed by Eurofins Pharma Discovery Services UK Ltd., (Dundee, UK). Determination of off-target inhibition of other kinases was conducted by DiscoverX LeadHunter Discovery Services (Freemont, CA, USA.) GFH009 reactivity to GPCR family members was assayed by Wuxi AppTech (Shanghai, China).

Molecules are shown by their SMILES. Where only a bound is given, the exact number is not on record here.

CDK9/cyclin T1(h), sequence (P50750 whole entry): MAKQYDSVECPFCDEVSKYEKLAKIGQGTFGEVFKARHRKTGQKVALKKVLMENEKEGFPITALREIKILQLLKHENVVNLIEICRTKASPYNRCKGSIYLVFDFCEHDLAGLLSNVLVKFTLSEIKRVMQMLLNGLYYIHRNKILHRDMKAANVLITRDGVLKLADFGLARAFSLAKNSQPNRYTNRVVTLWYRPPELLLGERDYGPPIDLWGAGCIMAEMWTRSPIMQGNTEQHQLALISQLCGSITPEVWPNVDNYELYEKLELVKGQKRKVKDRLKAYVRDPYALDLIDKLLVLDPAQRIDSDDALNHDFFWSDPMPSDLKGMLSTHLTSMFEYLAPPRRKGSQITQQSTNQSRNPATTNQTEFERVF
CDK9/cyclin T1(h), sequence (O60563 whole entry partner): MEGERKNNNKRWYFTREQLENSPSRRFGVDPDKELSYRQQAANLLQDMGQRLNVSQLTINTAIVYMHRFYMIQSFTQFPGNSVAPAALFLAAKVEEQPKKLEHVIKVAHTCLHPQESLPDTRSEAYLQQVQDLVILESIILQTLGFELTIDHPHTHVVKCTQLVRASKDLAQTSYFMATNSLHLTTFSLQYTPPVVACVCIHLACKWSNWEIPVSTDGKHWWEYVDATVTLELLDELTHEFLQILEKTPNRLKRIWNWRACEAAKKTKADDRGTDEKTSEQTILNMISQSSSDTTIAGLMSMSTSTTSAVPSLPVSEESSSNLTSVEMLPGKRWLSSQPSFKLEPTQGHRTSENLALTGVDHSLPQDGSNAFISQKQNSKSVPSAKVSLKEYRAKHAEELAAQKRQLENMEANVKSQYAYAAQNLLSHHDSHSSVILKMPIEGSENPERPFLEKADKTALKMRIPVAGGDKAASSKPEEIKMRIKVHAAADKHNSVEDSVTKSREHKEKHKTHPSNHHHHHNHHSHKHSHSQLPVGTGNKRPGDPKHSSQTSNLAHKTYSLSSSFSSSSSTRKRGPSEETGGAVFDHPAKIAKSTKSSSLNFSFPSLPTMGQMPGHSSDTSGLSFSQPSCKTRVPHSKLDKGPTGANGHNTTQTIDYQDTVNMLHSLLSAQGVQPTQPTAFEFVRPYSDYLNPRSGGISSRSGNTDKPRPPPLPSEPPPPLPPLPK

In the case of `COC[C@@H](C)NC1CCC(Nc2cc(-c3csc(NCC4(C#N)CCOCC4)n3)c(Cl)cn2)CC1` (some centres unmarked) [GFH009], in the data set on MV-4-11 xenograft tumor (from 2 hours through 48-hour time point), the “Levels of MCL-1 and MYC in tumor” value is given as “began to decrease significantly”. Also, the “Expression of p-Rpb1 phospho-Ser2 in tumor” value in the data set on MV-4-11 xenograft tumor (from one hour through 48 hours post-administration) is given as “began to decrease significantly”. In addition, the Apoptosis rate in the data set on MV-4-11 (0.01 μM) came out at 6.3 ± 0.1%; with MV-4-11 (0.03 μM), 7.4 ± 0.3%; in the data set on MV-4-11 (0.1 μM), 38.1 ± 0.1%; with MV-4-11 (0.3 μM) it was 67.4 ± 1.0%; with MV-4-11 (1 μM), 61.2 ± 0.3%. In the data set on MV-4-11 cells (0.01-1 μM, western blot), the “Expression levels of MCL-1 and c-Myc” value is “dose-dependently decreased”. Moreover, the “Expression level of phospho-Rpb1 CTD Ser2” value with MV-4-11 cells (increasing concentration, western blot) was “gradually decreased”. In addition, in the data set on MV-4-11 cells (vs DMSO-only control), the “Expression levels of phospho-Rpb1 CTD Ser5 and total Rpb1” value is reported as “not significantly different”. In the data set with MV-4-11 cells (western blot), the “Concentration inducing cleavage of caspase-3 and PARP” value was “greater than 0.1 μM”. Further, the IC50 in data set [1] is less than 200 nM; on CDK9/cyclin T1(h), 9 nM. In data set [2], the “Relative change in body mass (RCBW%) vs initial” value is recorded as not above 5%.

Source of the values: PMC10732257 (Oncotarget, 2023).
